Key:
Assay type in all cases: ADME
[1] = (§1) The drug is tested on Bifidobacterium adolescentis strain: DSM20083 for biotransformation under anaerobic condition. The drug concentrations were measured over 6 timepoints collected between 0 and 12 hours of incubation by liquid-chromatography-coupled mass spectrometry (LC–MS); parameters: dose 5 uM, timepoint 0, 1.5, 3, 6, 9, 12 hours; conditions: 5 µM
[2] = The drug is tested on Bifidobacterium longum strain: DSM20088 for biotransformation under anaerobic condition. The drug concentrations were measured over 6 timepoints collected between 0 and 12 hours of incubation by liquid-chromatography-coupled mass spectrometry (LC–MS); parameters: dose 5 uM, timepoint 0, 1.5, 3, 6, 9, 12 hours; conditions: 5 µM
[3] = The drug is tested on Bacteroides fragilis strain: DSM2151 for biotransformation under anaerobic condition. The drug concentrations were measured over 6 timepoints collected between 0 and 12 hours of incubation by liquid-chromatography-coupled mass spectrometry (LC–MS); parameters: dose 5 uM, timepoint 0, 1.5, 3, 6, 9, 12 hours; conditions: 5 µM
[4] = The drug is tested on Bacteroides stercoris strain: HM 1036 for biotransformation under anaerobic condition. The drug concentrations were measured over 6 timepoints collected between 0 and 12 hours of incubation by liquid-chromatography-coupled mass spectrometry (LC–MS); parameters: dose 5 uM, timepoint 0, 1.5, 3, 6, 9, 12 hours; conditions: 5 µM
[5] = The drug is tested on Prevotella copri strain: DSM18205 for biotransformation under anaerobic condition. The drug concentrations were measured over 6 timepoints collected between 0 and 12 hours of incubation by liquid-chromatography-coupled mass spectrometry (LC–MS); parameters: dose 5 uM, timepoint 0, 1.5, 3, 6, 9, 12 hours; conditions: segatella copri, 5 µM
[6] = The drug is tested on Eubacterium eligens strain: DSM3376 for biotransformation under anaerobic condition. The drug concentrations were measured over 6 timepoints collected between 0 and 12 hours of incubation by liquid-chromatography-coupled mass spectrometry (LC–MS); parameters: dose 5 uM, timepoint 0, 1.5, 3, 6, 9, 12 hours; conditions: lachnospira eligens, 5 µM
[7] = The drug is tested on Eubacterium rectale strain: DSM17629 for biotransformation under anaerobic condition. The drug concentrations were measured over 6 timepoints collected between 0 and 12 hours of incubation by liquid-chromatography-coupled mass spectrometry (LC–MS); parameters: dose 5 uM, timepoint 0, 1.5, 3, 6, 9, 12 hours; conditions: agathobacter rectalis, 5 µM
[8] = The drug is tested on Ruminococcus gnavus strain: ATCC29149 for biotransformation under anaerobic condition. The drug concentrations were measured over 6 timepoints collected between 0 and 12 hours of incubation by liquid-chromatography-coupled mass spectrometry (LC–MS); parameters: dose 5 uM, timepoint 0, 1.5, 3, 6, 9, 12 hours; conditions: mediterraneibacter gnavus, 5 µM
[9] = The drug is tested on Streptococcus salivarius strain: DSM20560 for biotransformation under anaerobic condition. The drug concentrations were measured over 6 timepoints collected between 0 and 12 hours of incubation by liquid-chromatography-coupled mass spectrometry (LC–MS); parameters: dose 5 uM, timepoint 0, 1.5, 3, 6, 9, 12 hours; conditions: 5 µM
[10] = (§2) The drug is tested on Actinomyces naeslundi strain: DSM43013 for biotransformation under microaerobic condition. The drug concentrations were measured over 6 timepoints collected between 0 and 12 hours of incubation by liquid-chromatography-coupled mass spectrometry (LC–MS); parameters: dose 5 uM, timepoint 0, 1.5, 3, 6, 9, 12 hours; conditions: actinomyces naeslundii, 5 µM
[11] = The drug is tested on Capnocytophaga ochracea strain: DSM7271 for biotransformation under microaerobic condition. The drug concentrations were measured over 6 timepoints collected between 0 and 12 hours of incubation by liquid-chromatography-coupled mass spectrometry (LC–MS); parameters: dose 5 uM, timepoint 0, 1.5, 3, 6, 9, 12 hours; conditions: 5 µM
[12] = The drug is tested on Gemella haemolysans strain: DSM107751 for biotransformation under microaerobic condition. The drug concentrations were measured over 6 timepoints collected between 0 and 12 hours of incubation by liquid-chromatography-coupled mass spectrometry (LC–MS); parameters: dose 5 uM, timepoint 0, 1.5, 3, 6, 9, 12 hours; conditions: 5 µM
[13] = The drug is tested on Lactobacillus paracasei strain: ATCC27092 for biotransformation under microaerobic condition. The drug concentrations were measured over 6 timepoints collected between 0 and 12 hours of incubation by liquid-chromatography-coupled mass spectrometry (LC–MS); parameters: dose 5 uM, timepoint 0, 1.5, 3, 6, 9, 12 hours; conditions: lacticaseibacillus paracasei, 5 µM
[14] = The drug is tested on Streptococcus salivarius strain: DSM20560 for biotransformation under microaerobic condition. The drug concentrations were measured over 6 timepoints collected between 0 and 12 hours of incubation by liquid-chromatography-coupled mass spectrometry (LC–MS); parameters: dose 5 uM, timepoint 0, 1.5, 3, 6, 9, 12 hours; conditions: 5 µM
[15] = as §1, with “the gut metagenome community of A-06 with ENA study accession number: PRJEB31790” for “Bifidobacterium adolescentis strain: DSM20083”, “7” for “6”; parameters: dose 5 uM, timepoint 0, 0.75, 1.5, 3, 6, 9, 12 hours; conditions: 5 µM
[16] = as §1, with “the gut metagenome community of A-08 with ENA study accession number: PRJEB31790” for “Bifidobacterium adolescentis strain: DSM20083”, “7” for “6”; parameters: dose 5 uM, timepoint 0, 0.75, 1.5, 3, 6, 9, 12 hours; conditions: 5 µM
[17] = as §1, with “the gut metagenome community of P-04 with ENA study accession number: PRJEB31790” for “Bifidobacterium adolescentis strain: DSM20083”, “7” for “6”; parameters: dose 5 uM, timepoint 0, 0.75, 1.5, 3, 6, 9, 12 hours; conditions: 5 µM
[18] = as §1, with “the gut metagenome community of T-01 with ENA study accession number: PRJEB31790” for “Bifidobacterium adolescentis strain: DSM20083”, “7” for “6”; parameters: dose 5 uM, timepoint 0, 0.75, 1.5, 3, 6, 9, 12 hours; conditions: 5 µM
[19] = as §1, with “the gut metagenome community of T-04 with ENA study accession number: PRJEB31790” for “Bifidobacterium adolescentis strain: DSM20083”, “7” for “6”; parameters: dose 5 uM, timepoint 0, 0.75, 1.5, 3, 6, 9, 12 hours; conditions: 5 µM
[20] = as §1, with “the gut metagenome community of T-05 with ENA study accession number: PRJEB31790” for “Bifidobacterium adolescentis strain: DSM20083”, “7” for “6”; parameters: dose 5 uM, timepoint 0, 0.75, 1.5, 3, 6, 9, 12 hours; conditions: 5 µM
[21] = as §2, with “the gut metagenome community of A-04 with ENA study accession number: PRJEB31790” for “Actinomyces naeslundi strain: DSM43013”, “7” for “6”; parameters: dose 5 uM, timepoint 0, 0.75, 1.5, 3, 6, 9, 12 hours; conditions: 5 µM
[22] = as §2, with “the gut metagenome community of A-05 with ENA study accession number: PRJEB31790” for “Actinomyces naeslundi strain: DSM43013”, “7” for “6”; parameters: dose 5 uM, timepoint 0, 0.75, 1.5, 3, 6, 9, 12 hours; conditions: 5 µM
[23] = as §2, with “the gut metagenome community of A-07 with ENA study accession number: PRJEB31790” for “Actinomyces naeslundi strain: DSM43013”, “7” for “6”; parameters: dose 5 uM, timepoint 0, 0.75, 1.5, 3, 6, 9, 12 hours; conditions: 5 µM
[24] = as §2, with “the gut metagenome community of A-09 with ENA study accession number: PRJEB31790” for “Actinomyces naeslundi strain: DSM43013”, “7” for “6”; parameters: dose 5 uM, timepoint 0, 0.75, 1.5, 3, 6, 9, 12 hours; conditions: 5 µM
[25] = as §2, with “the gut metagenome community of P-01 with ENA study accession number: PRJEB31790” for “Actinomyces naeslundi strain: DSM43013”, “7” for “6”; parameters: dose 5 uM, timepoint 0, 0.75, 1.5, 3, 6, 9, 12 hours; conditions: 5 µM
[26] = as §2, with “the gut metagenome community of P-02 with ENA study accession number: PRJEB31790” for “Actinomyces naeslundi strain: DSM43013”, “7” for “6”; parameters: dose 5 uM, timepoint 0, 0.75, 1.5, 3, 6, 9, 12 hours; conditions: 5 µM
[27] = as §2, with “the gut metagenome community of P-03 with ENA study accession number: PRJEB31790” for “Actinomyces naeslundi strain: DSM43013”, “7” for “6”; parameters: dose 5 uM, timepoint 0, 0.75, 1.5, 3, 6, 9, 12 hours; conditions: 5 µM
[28] = as §2, with “the gut metagenome community of T-01 with ENA study accession number: PRJEB31790” for “Actinomyces naeslundi strain: DSM43013”, “7” for “6”; parameters: dose 5 uM, timepoint 0, 0.75, 1.5, 3, 6, 9, 12 hours; conditions: 5 µM
[29] = as §2, with “the gut metagenome community of T-02 with ENA study accession number: PRJEB31790” for “Actinomyces naeslundi strain: DSM43013”, “7” for “6”; parameters: dose 5 uM, timepoint 0, 0.75, 1.5, 3, 6, 9, 12 hours; conditions: 5 µM
[30] = as §2, with “the gut metagenome community of T-04 with ENA study accession number: PRJEB31790” for “Actinomyces naeslundi strain: DSM43013”, “7” for “6”; parameters: dose 5 uM, timepoint 0, 0.75, 1.5, 3, 6, 9, 12 hours; conditions: 5 µM
[31] = as §2, with “the gut metagenome community of T-05 with ENA study accession number: PRJEB31790” for “Actinomyces naeslundi strain: DSM43013”, “7” for “6”; parameters: dose 5 uM, timepoint 0, 0.75, 1.5, 3, 6, 9, 12 hours; conditions: 5 µM

| Bacterial Biotransformation [1] | Bacterial Biotransformation [2] | Bacterial Biotransformation [3] | Bacterial Biotransformation [4] | Bacterial Biotransformation [5] | Bacterial Biotransformation [6] | Bacterial Biotransformation [7] | Bacterial Biotransformation [8] | Bacterial Biotransformation [9] | Bacterial Biotransformation [10] | Bacterial Biotransformation [11] | Bacterial Biotransformation [13] | Bacterial Biotransformation [14] | Bacterial Biotransformation [15] | Bacterial Biotransformation [16] | Bacterial Biotransformation [17] | Bacterial Biotransformation [18] | Bacterial Biotransformation [19] | Bacterial Biotransformation [20] | Compound | Bacterial Biotransformation [12] | other results |
| --- | --- | --- | --- | --- | --- | --- | --- | --- | --- | --- | --- | --- | --- | --- | --- | --- | --- | --- | --- | --- | --- |
| Compound NOT metabolized | Compound NOT metabolized | Compound NOT metabolized | Compound NOT metabolized | Compound NOT metabolized | Compound NOT metabolized | Compound NOT metabolized | Compound metabolized | Compound NOT metabolized | Compound NOT metabolized | Compound NOT metabolized | Compound NOT metabolized | Compound NOT metabolized | Compound metabolized | Compound metabolized | Compound metabolized | Compound NOT metabolized | Compound NOT metabolized | Compound NOT metabolized | C[C@H]1C[C@@H]2[C@H]([C@@H](O)C[C@@]3(C)[C@H]2CC[C@]3(O)C(=O)CO)[C@@]2(C)C=CC(=O)C=C12 [METHYLPREDNISOLONE] | Compound NOT metabolized | Bacterial Biotransformation [21]: Compound metabolized; Bacterial Biotransformation [22]: Compound metabolized; Bacterial Biotransformation [23]: Compound metabolized; Bacterial Biotransformation [24]: Compound metabolized; Bacterial Biotransformation [25]: Compound metabolized; Bacterial Biotransformation [26]: Compound metabolized; Bacterial Biotransformation [27]: Compound metabolized; Bacterial Biotransformation [28]: Compound metabolized; Bacterial Biotransformation [29]: Compound metabolized; Bacterial Biotransformation [30]: Compound NOT metabolized; Bacterial Biotransformation [31]: Compound metabolized |
| Compound NOT metabolized | Compound metabolized | Compound NOT metabolized | Compound metabolized | Compound metabolized | Compound metabolized | Compound NOT metabolized | Compound NOT metabolized | Compound metabolized | Compound NOT metabolized | Compound metabolized | Compound NOT metabolized | Compound metabolized | Compound metabolized | Compound metabolized | Compound metabolized | Compound metabolized | Compound metabolized | Compound metabolized | COc1c(C)c2c(c(O)c1C/C=C(\C)CCC(=O)OCCN1CCOCC1)C(=O)OC2 [MYCOPHENOLATE MOFETIL] | Compound metabolized | Bacterial Biotransformation [21]: Compound metabolized; Bacterial Biotransformation [22]: Compound metabolized; Bacterial Biotransformation [23]: Compound metabolized; Bacterial Biotransformation [24]: Compound metabolized; Bacterial Biotransformation [25]: Compound metabolized; Bacterial Biotransformation [26]: Compound metabolized; Bacterial Biotransformation [27]: Compound metabolized; Bacterial Biotransformation [28]: Compound metabolized; Bacterial Biotransformation [29]: Compound metabolized; Bacterial Biotransformation [30]: Compound metabolized; Bacterial Biotransformation [31]: Compound metabolized |
| Compound NOT metabolized | Compound NOT metabolized | Compound NOT metabolized | Compound NOT metabolized | Compound NOT metabolized | Compound NOT metabolized | Compound NOT metabolized | Compound NOT metabolized | Compound NOT metabolized | Compound NOT metabolized | Compound NOT metabolized | Compound NOT metabolized | Compound NOT metabolized | Compound NOT metabolized | Compound NOT metabolized | Compound NOT metabolized | Compound NOT metabolized | Compound NOT metabolized | Compound metabolized | COc1c(C)c2c(c(O)c1C/C=C(\C)CCC(=O)O)C(=O)OC2 [MYCOPHENOLIC ACID] | Compound NOT metabolized | Bacterial Biotransformation [21]: Compound NOT metabolized; Bacterial Biotransformation [22]: Compound NOT metabolized; Bacterial Biotransformation [23]: Compound NOT metabolized; Bacterial Biotransformation [24]: Compound NOT metabolized; Bacterial Biotransformation [25]: Compound NOT metabolized; Bacterial Biotransformation [26]: Compound NOT metabolized; Bacterial Biotransformation [27]: Compound NOT metabolized; Bacterial Biotransformation [28]: Compound NOT metabolized; Bacterial Biotransformation [29]: Compound NOT metabolized; Bacterial Biotransformation [30]: Compound NOT metabolized; Bacterial Biotransformation [31]: Compound metabolized |
